According to patent publication US20030134859A1 (SANKYO COMPANY, LIMITED, priority 2000, published 2003):

Test system: ABCA1 mRNA
Assay: Quantitative analysis of ABCA1 mRNA (TaqMan PCR) in RAW264.7 cells
Type: cell-based, mouse
Conditions: 100 nM test compound, 24 hr, normalised to β-actin, DMSO = 100
Procedure: The mouse monocyte/macrophage cell line, RAW264.7 (ATCC TIB71) was purchased from Dainippon Pharmaceutical Co., Ltd. As the medium, the Dulbecco's modified Eagle's medium (DMEM medium; GIBCO, Cat. No. 11995-040) containing bovine fetal serum (the final concentration: 10% (v/v), MOREGATE, lot No. 474030), penicillin G (the final concentration: 50 units/mL, GIBCO) and streptomycin (the final concentration: 20 μg/mL, GIBCO) was used.
The culture of RAW264.7 cells was carried out in a CO2 incubator (37° C., 95% R.H., 5% of CO2).
A 2 ml volume of RAW264.7 cells suspension (1×10^6 cells/mL) was plated in each well of a 6-well plate (2×10^6 cells/well) and the cells were incubated for 2 hr in a CO2 incubator. The test compounds dissolved in DMSO were diluted with DMEM medium by 20 times, and were added to the wells at a volume of 4 μL/well (final concentration of the test compound: 100 nM). As the control, the DMSO solution was diluted with the DMEM medium by 20 times, and was added to the wells at the volume of 4 μL/well. After the cells were cultured in a CO2 incubator for 24 hr, the medium was removed and the total RNA was purified by using an RNeasy Mini Kit (Qiagen), according to the protocol attached. The concentration of the RNA in the samples obtained was calculated from absorbance at 260 nm (A260=1=40 μg/ml). Six (6) μg of total RNA were diluted with RNAase-free water so as to be 22.6 μL, which was heated at 65° C. for 10 min, and then was cooled on ice. The RNA in the solution was used as the template, and the cDNA was synthesized by using a First-strand cDNA Synthesis Kit (Amersham Pharmacia Biotech). In this reaction, a solution was prepared having the following composition and was reacted at 37° C. for 1 hr.
After the reaction, 3 μL of soution were collected from each of the reaction mixtures of the test compound-treated cell samples and that of the control cell samples. The mixed solution was used as the standard solution. The standard solution and each reaction solution were purified with a Chroma Spin-100+DEPC-H2O Column according to the protocol attached, and they were used as the template for TaqMan PCR (Template). In order to draw the calibration curve, the standard solution was diluted by every 5 times for 5 steps and each solution was used for TaqMan PCR. TaqMan PCR was carried out in ABCA1 and β-actin. As Primers for use in the TaqMan PCR, 4 oligonucleotides (abca1 forward (S3), abca1 reverse (AS3), β-actin forward (S4) and β-actin reverse (AS4)) were designed which are shown in sequences No. 5 to 8 in the sequence table described later. The synthesis and purification of these 4 oligomers was ordered from Amersham Pharmacia Biotech Co.
As FAM-TAMRA labelled TaqMan Probe, 2 kinds of oligonucleotides (abca1 (p1) and β-actin (p2)) were designed and were ordered from Applied Biosystems Co. to synthesize and purify.
The following reaction mixture of ABCA1 or β-actin was divided into 2 wells of a MicroAmp Optical 96-well Reaction Plate (Applied Biosystem Co.). TaqMan Universal PCR Master Mix was purchased from Applied Biosystem Co.
The plate was covered with a MicroAmp Optical Cap (Applied Biosystems Co.), and TaqMan PCR was carried out by using an ABI PRISM 7,700 Sequence Detection System (Applied Biosystem Co.) under the following conditions:
An analysis was made according to the procedures described in the manual of Sequence Detection Software (Applied Biosystem Co.) and the increased rate of ABCA1 mRNA due to the test compound was calculated based on the following equation.
A: Amount of the ABCA1 mRNA in the presence of the test compound
B: Amount of the β-actin mRNA in the presence of the test compound
C: Amount of the ABCA1 mRNA in the presence of DMSO
D: Amount of the β-actin mRNA in the presence of DMSO
Increase Rate (%) of ABCA1 mRNA=(A/B)/(C/D)×100

Q: For `O=C(Nc1ccc(-c2ccc(O)cc2)cc1)c1cc([N+](=O)[O-])ccc1Cl` [Example 135, N-[4-(4-Hydroxyphenyl)phenyl]-2-(chloro-5-nitrophenyl)carboxamide], which “Rate of Increase (%) of ABCA1 mRNA” value is on record?
A: 163.0%
